Assay: Inhibition of p38 MAPK

Question: With `COc1cc2[nH]ccc2cc1C(=O)N1C[C@H](C)N(Cc2ccccc2)C[C@H]1C` as the compound, how does the IC50 read?
Answer: 1300 nM

Question: For `O=C(c1cccc2[nH]ccc12)N1CCN(Cc2ccccc2)CC1`, which IC50 is on record?
Answer: 4700 nM

Question: With `O=c1ccc(-c2c(-c3ccc(F)cc3)nc3ccccn23)nn1-c1c(Cl)cccc1Cl` as the compound, how does the IC50 read?
Answer: 49 nM

Question: For `COC[C@H](C)Nc1cc(-c2c(-c3ccccc3)nc3nc(N)ccn23)ccn1`, which IC50 is on record?
Answer: 2 nM

Question: For `O=C1CCC(c2c(-c3cccc(C(F)(F)F)c3)nc3ccccn23)=NN1c1ccccc1Cl`, which IC50 is on record?
Answer: 170 nM

Question: For `Nc1ccn2c(-c3ccnc(NCc4ccccc4)c3)c(-c3ccc(F)cc3)nc2n1`, which IC50 is on record?
Answer: 6 nM

Question: Which IC50 does the source give for `O=C1NCc2nc(Sc3ccccc3)ccc2N1c1c(Cl)cccc1Cl` here?
Answer: 270 nM

Question: With `Cc1ccccc1-c1nc(N(C(N)=O)c2c(F)cccc2F)c2ncn(C)c2n1` as the compound, how does the IC50 read?
Answer: 140 nM

Question: Which IC50 does the source give for `Cc1ccc(NC(=O)c2ccnc(N3CCOCC3)c2)cc1Nc1ccnc(OC2CCN(C)CC2)n1` here?
Answer: 40 nM

Question: For `O=C1NCc2c(-c3ccc(F)cc3Cl)cc(C3CCN(CC4CCC4)CC3)cc2N1c1c(Cl)cccc1Cl`, which IC50 is on record?
Answer: 0.6 nM

Question: With `Nc1nc(N)c(F)c(-c2nc(-c3cccc(C(F)(F)F)c3)c(-c3ccncc3)[nH]2)c1F` as the compound, how does the IC50 read?
Answer: 470 nM

Question: With `CC(C)(C)N1CCC(c2cc(-c3ccc(F)cc3Cl)c3c(c2)N(c2c(Cl)cccc2Cl)C(=O)NC3)CC1` as the compound, how does the IC50 read?
Answer: 0.2 nM

Question: For `Cc1ccccc1N1N=C(c2c(-c3ccc(F)cc3F)nc3ccccn23)CCC1=O`, which IC50 is on record?
Answer: 8 nM

Question: For `Nc1ccn2c(-c3ccncn3)c(-c3ccccc3)nc2n1`, which IC50 is on record?
Answer: 990 nM

Question: Which IC50 does the source give for `Fc1ccc(-c2[nH]c3ccc4[nH]c(Cc5ccccc5)nc4c3c2-c2ccncc2)cc1` here?
Answer: 22 nM

Question: For `O=C1CCC(c2c(-c3ccc(F)cc3F)nc3ccccn23)=NN1c1c(Cl)cccc1Cl`, which IC50 is on record?
Answer: 8 nM

Question: For `O=C1NCc2c(-c3ccc(F)cc3Cl)cc(C3CCN(CC4CC4)CC3)cc2N1c1c(Cl)cccc1Cl`, which IC50 is on record?
Answer: 0.5 nM

Question: For `COc1ccc(C#CC(C)(C)N)cc1C(=O)c1ccc(Nc2ccc(F)cc2F)cc1`, which IC50 is on record?
Answer: 14 nM

Question: Which IC50 does the source give for `Cc1ccccc1Sc1ccc2c(n1)CNC(=O)N2c1c(Cl)cccc1Cl` here?
Answer: 110 nM

Question: Which IC50 does the source give for `O=C(c1ccc2[nH]cc(CN3CCOCC3)c2c1)N1CCC(Cc2ccccc2)CC1` here?
Answer: 6600 nM

Question: With `CCN(CC)CCCn1ccc2cc(C(=O)N3CCC(Cc4ccccc4)CC3)c(Cl)cc21` as the compound, how does the IC50 read?
Answer: 200 nM

From ChEMBL document CHEMBL1154481, “Pharmacophore modeling of diverse classes of p38 MAP kinase inhibitors” (Eur J Med Chem, 2008)
